In brackets after ≈: the same amount, converted by molar mass. Like-named read-outs stand apart in the source and are kept apart here.
Assays:
[1] = Solubility; type: physicochemical; conditions: for solubility: 20° C.
[2] = tested on: Candida albicans; conditions: cited from earlier work
[3] = tested on: Staphylococcus aureus; conditions: cited from earlier work
[4] = tested on: Pseudomonas aeruginosa; conditions: cited from earlier work
[5] = tested on: Escherichia coli; conditions: cited from earlier work
[6] = tested on: Aspergillus brasiliensis; conditions: cited from earlier work
[7] = 20° C., Echa Registration Dossier; cited from earlier work
[8] = Hygroscopicity; type: physicochemical

| SMILES | water solubility (in words) ([1]; water) | MIC [2] [%] | MIC [3] [%] | MIC [4] [%] | MIC [5] [%] | solubility ([1]; organic solvent or mixture, ethanol, read-out: solubility in ethanol) [µg/mL] | solubility ([1]; water, read-out: solubility in water) [µg/mL] | MIC [6] [%] | solubility in water [7] [µg/mL] | hygroscopicity (in words) [8] |
| --- | --- | --- | --- | --- | --- | --- | --- | --- | --- | --- |
| CC(=O)CCC(=O)O [levulinic acid, 4-oxovaleric acid] | good water solubility | 0.60 | 0.35 | 0.15 | 0.20 | – | – | – | – | – |
| COc1ccc(C(=O)O)cc1 [p-methoxybenzoic acid] | low water solubility | 0.04 | 0.08 | 0.16 | 0.16 | 50000 (≈ 329000 µM) | 300 (≈ 1970 µM) | 0.0025 | 200 (≈ 1310 µM) | – |
| CC(=O)CCC(=O)[O-].[Na+] [sodium levulinate] | – | – | – | – | – | – | – | – | – | highly hygroscopic |
| COc1ccc(C(=O)[O-])cc1.[Na+] [p-methoxybenzoate salt, sodium p-methoxybenzoate] | – | – | – | – | – | – | – | – | – | non-hygroscopic |

From patent publication US12532883B2, “Powder compositions comprising salts of C4 to C10 oxocarboxylic acids and of unsaturated or aromatic C6 to C10 carboxylic acids” (Cosphatec GmbH, priority 2019, dated 2026)
